From PubChem BioAssay AID248 (DTP/NCI, 2004)
Values joined by “and” are separate entries in the source; they are usually repeats but may differ in a detail not shown here. Identical values can stand only once. Toxic doses and inconclusive results are not listed. No stated cut-off is given here; in the data, active means T/C of 150% or more; inactive means T/C below 125%.

Test system: L1210 leukemia ip in BDF1 mice, survival T/C
Assay: NCI In Vivo Anticancer Drug Screen. Data for tumor model L1210 Leukemia (intraperitoneal) in B6D2F1 (BDF1) mice
Conditions: endpoint: mean survival time, higher = longer survival
Protocol: The antitumor activity of compounds was measured in mice bearing transplantable tumors. Survival or tumor size were measured and the results are expressed as the measurement made in the treated group (T) divided by the measurement made in the vehicle treated control group (C). The tumor model used in this assay is L1210 Leukemia (intraperitoneal) in B6D2F1 (BDF1) mice

[1] = dose: 100.0 mg/kg/injection, schedule: Q01DX009 (ip), vehicle: Klucel (hydroxypropylcellulose) (HPC)
[2] = dose: 200.0 mg/kg/injection, schedule: Q01DX009 (ip), vehicle: Klucel (hydroxypropylcellulose) (HPC)
[3] = dose: 400.0 mg/kg/injection, schedule: Q01DX009 (ip), vehicle: Klucel (hydroxypropylcellulose) (HPC)
[4] = dose: 50.0 mg/kg/injection, schedule: Q01DX009 (ip), vehicle: saline with Tween-80
[5] = dose: 100.0 mg/kg/injection, schedule: Q01DX009 (ip), vehicle: saline with Tween-80
[6] = dose: 200.0 mg/kg/injection, schedule: Q01DX009 (ip), vehicle: saline with Tween-80
[7] = dose: 400.0 mg/kg/injection, schedule: Q01DX009 (ip), vehicle: saline with Tween-80
[8] = dose: 100.0 mg/kg/injection, schedule: Q04DX003 (ip), vehicle: saline with Tween-80
[9] = dose: 200.0 mg/kg/injection, schedule: Q04DX003 (ip), vehicle: saline with Tween-80
[10] = dose: 400.0 mg/kg/injection, schedule: Q04DX003 (ip), vehicle: saline with Tween-80
[11] = dose: 100.0 mg/kg/injection, schedule: Q01DX001 (ip), vehicle: saline
[12] = dose: 200.0 mg/kg/injection, schedule: Q01DX001 (ip), vehicle: saline
[13] = dose: 400.0 mg/kg/injection, schedule: Q01DX001 (ip), vehicle: saline

Measured: T/C

O=C(Nc1ccccc1C(F)(F)F)N(CCO)C1CCCCC1
inactive: [1] 100 % of control | [2] 103 % of control | [3] 101 % of control

CNC(=O)Nc1cc(Cl)c(OC)cc1OC
inactive: [1] 96 % of control | [2] 95 % of control | [3] 96 % of control

ON=C(CSCc1ccccc1)CSCc1ccccc1
inactive: [4] 101 % of control | [5] 101 % of control | [6] 100 % of control | [7] 101 % of control

CCCCNC(=S)Nc1ccccc1
inactive: dose: 75.0 mg/kg/injection, schedule: Q01DX001 (ip), vehicle: other 117 % of control | dose: 150.0 mg/kg/injection, schedule: Q01DX001 (ip), vehicle: other 117 % of control | dose: 300.0 mg/kg/injection, schedule: Q01DX001 (ip), vehicle: other 102 % of control

O=[N+]([O-])c1cccn2nc(-c3ccccc3)nc12
inactive: dose: 100.0 mg/kg/injection, schedule: Q01DX001 (ip), vehicle: acetone 98 % of control | dose: 200.0 mg/kg/injection, schedule: Q01DX001 (ip), vehicle: acetone 98 % of control | dose: 400.0 mg/kg/injection, schedule: Q01DX001 (ip), vehicle: acetone 101 % of control

O=C(NNC(=O)c1ccc(Cl)cc1)Nc1ccc(F)c(Cl)c1
inactive: [1] 97 % of control | [2] 104 % of control | [3] 100 % of control

CC(C)(C)NC(=O)Nc1ccc(O)cc1
inactive: [5] 112 % of control and 91 % of control | dose: 100.0 mg/kg/injection, schedule: Q04DX002 (ip), vehicle: saline with Tween-80 94 % of control and 100 % of control | [8] 95 % of control | [6] 100 % of control and 102 % of control | dose: 200.0 mg/kg/injection, schedule: Q04DX002 (ip), vehicle: saline with Tween-80 94 % of control and 100 % of control | [9] 113 % of control | [7] 120 % of control | dose: 400.0 mg/kg/injection, schedule: Q04DX002 (ip), vehicle: saline with Tween-80 100 % of control and 101 % of control | [10] 105 % of control

NNC(=O)CNc1cccc(I)c1
inactive: dose: 100.0 mg/kg/injection, schedule: Q04DX002 (ip), vehicle: Klucel (hydroxypropylcellulose) (HPC) 102 % of control | dose: 200.0 mg/kg/injection, schedule: Q04DX002 (ip), vehicle: Klucel (hydroxypropylcellulose) (HPC) 95 % of control | dose: 400.0 mg/kg/injection, schedule: Q04DX002 (ip), vehicle: Klucel (hydroxypropylcellulose) (HPC) 109 % of control

O=c1cc(Oc2ccc([N+](=O)[O-])cc2)[nH]c(=O)[nH]1
inactive: dose: 100.0 mg/kg/injection, schedule: Q01DX001 (ip), vehicle: Klucel (hydroxypropylcellulose) (HPC) 96 % of control | dose: 200.0 mg/kg/injection, schedule: Q01DX001 (ip), vehicle: Klucel (hydroxypropylcellulose) (HPC) 107 % of control

Clc1ccc2nccnc2c1
inactive: dose: 100.0 mg/kg/injection, schedule: Q04DX003 (ip), vehicle: Klucel (hydroxypropylcellulose) (HPC) 97 % of control | dose: 200.0 mg/kg/injection, schedule: Q04DX003 (ip), vehicle: Klucel (hydroxypropylcellulose) (HPC) 107 % of control

BrCCCCCc1ccccc1
inactive: [11] 106 % of control | [12] 107 % of control | [13] 101 % of control

Cc1cc(Cl)nc2ccc(Cc3ccc(Cl)cc3)cc12
inactive: [11] 97 % of control | [12] 92 % of control | [13] 93 % of control

CCC1C(=O)OCc2c1cc(C(=O)OC)n(C)c2=O (stereo not given)
inactive: dose: 25.0 mg/kg/injection, schedule: Q01DX001 (ip), vehicle: other 111 % of control | dose: 50.0 mg/kg/injection, schedule: Q01DX001 (ip), vehicle: other 108 % of control | dose: 100.0 mg/kg/injection, schedule: Q01DX001 (ip), vehicle: other 93 % of control | dose: 200.0 mg/kg/injection, schedule: Q01DX001 (ip), vehicle: other 93 % of control

O=c1[nH]c(-c2ccccc2)nc2c1OCN(Cc1ccccc1)C2
inactive: dose: 50.0 mg/kg/injection, schedule: Q01DX001 (ip), vehicle: carboxymethylcellulose (CMC) 98 % of control | dose: 100.0 mg/kg/injection, schedule: Q01DX001 (ip), vehicle: carboxymethylcellulose (CMC) 101 % of control | dose: 200.0 mg/kg/injection, schedule: Q01DX001 (ip), vehicle: carboxymethylcellulose (CMC) 98 % of control | dose: 400.0 mg/kg/injection, schedule: Q01DX001 (ip), vehicle: carboxymethylcellulose (CMC) 93 % of control

FC(F)(F)c1cccc(NC(=S)SCc2ccccc2)c1
inactive: dose: 75.0 mg/kg/injection, schedule: Q04DX003 (ip), vehicle: saline with Tween-80 95 % of control | dose: 150.0 mg/kg/injection, schedule: Q04DX003 (ip), vehicle: saline with Tween-80 98 % of control | dose: 300.0 mg/kg/injection, schedule: Q04DX003 (ip), vehicle: saline with Tween-80 102 % of control

OC(C[n+]1ccsc1)c1ccccc1 (stereo not given)
inactive: dose: 75.0 mg/kg/injection, schedule: Q01DX001 (ip), vehicle: saline 96 % of control | dose: 150.0 mg/kg/injection, schedule: Q01DX001 (ip), vehicle: saline 100 % of control

O=C(O)c1cccnc1Br
inactive: [8] 105 % of control | [9] 101 % of control | [10] 100 % of control

CCN(CC)C(=O)SCCSC(=O)N(CC)CC
inactive: dose: 25.0 mg/kg/injection, schedule: Q01DX009 (ip), vehicle: saline with Tween-80 110 % of control | [4] 110 % of control | [5] 93 % of control
